In this test the test system is L1210 leukemia ip in BDF1 mice, survival T/C. Put plainly: NCI In Vivo Anticancer Drug Screen. Data for tumor model L1210 Leukemia (intraperitoneal) in B6D2F1 (BDF1) mice. Conditions: endpoint: mean survival time, higher = longer survival. Put shortly: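 Value reflects the ratio of survival in compound-treated mice to survival in vehicle-treated controls, with both groups carrying the same transplanted tumor.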

Setting [1] is: dose: 50.0 mg/kg/injection, schedule: Q01DX009 (ip), vehicle: saline.
[2] abbreviates: dose: 100.0 mg/kg/injection, schedule: Q01DX009 (ip), vehicle: saline.
Setting [3] is: dose: 100.0 mg/kg/injection, schedule: Q04DX003 (ip), vehicle: saline.
[4] abbreviates: dose: 200.0 mg/kg/injection, schedule: Q04DX003 (ip), vehicle: saline.
[5] abbreviates: dose: 100.0 mg/kg/injection, schedule: Q01DX009 (ip), vehicle: saline with Tween-80.
[6] abbreviates: dose: 100.0 mg/kg/injection, schedule: Q04DX002 (ip), vehicle: saline with Tween-80.
Where [7] appears, read: dose: 200.0 mg/kg/injection, schedule: Q01DX009 (ip), vehicle: saline with Tween-80.
Where [8] appears, read: dose: 200.0 mg/kg/injection, schedule: Q04DX002 (ip), vehicle: saline with Tween-80.
Setting [9] is: dose: 400.0 mg/kg/injection, schedule: Q01DX009 (ip), vehicle: saline with Tween-80.
Where [10] appears, read: dose: 400.0 mg/kg/injection, schedule: Q04DX002 (ip), vehicle: saline with Tween-80.
The mark [11] stands for this setting: dose: 100.0 mg/kg/injection, schedule: Q04DX003 (ip), vehicle: saline sonified.
The mark [12] stands for this setting: dose: 200.0 mg/kg/injection, schedule: Q04DX003 (ip), vehicle: saline sonified.
Where [13] appears, read: dose: 400.0 mg/kg/injection, schedule: Q04DX003 (ip), vehicle: saline sonified.
Where [14] appears, read: dose: 50.0 mg/kg/injection, schedule: Q01DX001 (ip), vehicle: carboxymethylcellulose (CMC).
Setting [15] is: dose: 100.0 mg/kg/injection, schedule: Q01DX001 (ip), vehicle: carboxymethylcellulose (CMC).
Where [16] appears, read: dose: 200.0 mg/kg/injection, schedule: Q01DX001 (ip), vehicle: carboxymethylcellulose (CMC).
Setting [17] is: dose: 400.0 mg/kg/injection, schedule: Q01DX001 (ip), vehicle: carboxymethylcellulose (CMC).
Setting [18] is: dose: 100.0 mg/kg/injection, schedule: Q04DX003 (ip), vehicle: saline with Tween-80.

Where “and” joins values, the source holds several entries; their conditions need not be identical. Equal values may be shown once. Toxic doses and inconclusive results are not listed.

Turning to `CCN(CC)CC(=O)NC(CCN(C)C)(c1cccc2ccccc12)C(C)C` (centres undefined), the T/C is 94 % of control under setting [1]; 112 % of control under setting [2]; 105 % of control under setting [3]; 100 % of control (dose: 200.0 mg/kg/injection, schedule: Q01DX009 (ip), vehicle: saline); 105 % of control under setting [4].

In the case of `Cc1ccc(C(=O)/C=C/c2ccc(Cl)c(Cl)c2)c(C)c1`, the T/C was 92 % of control under setting [5]; 98 % of control under setting [6]; 95 % of control under setting [7]; 91 % of control under setting [8]; 109 % of control under setting [9]; 91 % of control under setting [10].

`Cc1ccc(NC(=O)Nc2ccccc2C(N)=O)cc1`: the T/C under setting [11] was 92 % of control, the T/C under setting [12] was 92 % of control and the T/C under setting [13] is 89 % of control.

Turning to `Nc1nc(N)c(CCCOc2cccc(Cl)c2Cl)c(N)n1`, the T/C (dose: 87.5 mg/kg/injection, schedule: Q01DX009 (ip), vehicle: Klucel (hydroxypropylcellulose) (HPC)) was 95 % of control; the T/C (dose: 175.0 mg/kg/injection, schedule: Q01DX009 (ip), vehicle: Klucel (hydroxypropylcellulose) (HPC)) is 88 % of control; the T/C (dose: 350.0 mg/kg/injection, schedule: Q01DX009 (ip), vehicle: Klucel (hydroxypropylcellulose) (HPC)) was 106 % of control.

As for `COc1ccc(C(=O)CCCC(=O)O)cc1`, the T/C under setting [14] is 105 % of control, the T/C under setting [15] was 100 % of control, the T/C under setting [16] was 111 % of control and the T/C under setting [17] was 105 % of control.

Consider `CC1(C)c2ccccc2N(CCCN)c2ccccc21`, for which the T/C is 93 % of control (dose: 3.25 mg/kg/injection, schedule: Q01DX001 (ip), vehicle: saline); 93 % of control (dose: 6.5 mg/kg/injection, schedule: Q01DX001 (ip), vehicle: saline); 96 % of control (dose: 13.0 mg/kg/injection, schedule: Q01DX001 (ip), vehicle: saline); 95 % of control (dose: 50.0 mg/kg/injection, schedule: Q01DX001 (ip), vehicle: saline); 106 % of control (dose: 100.0 mg/kg/injection, schedule: Q01DX001 (ip), vehicle: saline).

As for `COc1ccc(C=C2c3ccccc3-c3ccccc32)cc1`, the T/C is 95 % of control under setting [11], 100 % of control under setting [12] and 94 % of control under setting [13].

Take `O=C(CCN1CC1)Nc1ccc(NC(=O)CCN2CC2)cc1`: the T/C is, setting by setting: (dose: 2.0 mg/kg/injection, schedule: Q01DX009 (ip), vehicle: Klucel (hydroxypropylcellulose) (HPC)) 121 % of control; (dose: 3.0 mg/kg/injection, schedule: Q01DX009 (ip), vehicle: Klucel (hydroxypropylcellulose) (HPC)) 156 % of control; (dose: 6.6 mg/kg/injection, schedule: Q01DX009 (ip), vehicle: Klucel (hydroxypropylcellulose) (HPC)) 184 % of control; (dose: 10.0 mg/kg/injection, schedule: Q04DX003 (ip), vehicle: Klucel (hydroxypropylcellulose) (HPC)) 115 % of control; (dose: 20.0 mg/kg/injection, schedule: Q01DX009 (ip), vehicle: Klucel (hydroxypropylcellulose) (HPC)) 97 % of control; (dose: 40.0 mg/kg/injection, schedule: Q04DX003 (ip), vehicle: Klucel (hydroxypropylcellulose) (HPC)) 171 % of control and 181 % of control.

As to `C#CCC1CCCC/C1=N\Nc1ccc([N+](=O)[O-])cc1[N+](=O)[O-]` (centres undefined), the T/C is, setting by setting: (dose: 100.0 mg/kg/injection, schedule: Q04DX002 (ip), vehicle: Klucel (hydroxypropylcellulose) (HPC)) 96 % of control; (dose: 200.0 mg/kg/injection, schedule: Q04DX002 (ip), vehicle: Klucel (hydroxypropylcellulose) (HPC)) 103 % of control; (dose: 400.0 mg/kg/injection, schedule: Q04DX002 (ip), vehicle: Klucel (hydroxypropylcellulose) (HPC)) 92 % of control.

Turning to `Cc1cc(C)c(NC(=S)NC(=O)/C=C/c2ccccc2)c(C)c1`, the T/C was 100 % of control (dose: 100.0 mg/kg/injection, schedule: Q01DX001 (ip), vehicle: saline with Tween-80); 97 % of control and 89 % of control under setting [5]; 101 % of control under setting [6]; 92 % of control under setting [18]; 92 % of control (dose: 200.0 mg/kg/injection, schedule: Q01DX001 (ip), vehicle: saline with Tween-80); 101 % of control and 107 % of control under setting [7]. Further, the T/C under setting [8] was 104 % of control; the T/C (dose: 200.0 mg/kg/injection, schedule: Q04DX003 (ip), vehicle: saline with Tween-80) was 92 % of control; the T/C (dose: 400.0 mg/kg/injection, schedule: Q01DX001 (ip), vehicle: saline with Tween-80) was 97 % of control; the T/C under setting [9] is 92 % of control and 96 % of control; the T/C under setting [10] was 87 % of control; the T/C (dose: 400.0 mg/kg/injection, schedule: Q04DX003 (ip), vehicle: saline with Tween-80) is 91 % of control.

As for `CC(=O)OC1CCCCCCCCC1OC(C)=O` (centres undefined), the T/C under setting [15] was 103 % of control, the T/C under setting [16] was 98 % of control and the T/C under setting [17] was 95 % of control.

As to `Nc1nc2c(ncn2C2OC(COP(=O)(O)OC3C(COP(=O)(O)O)OC(n4cnc5c(=O)[nH]c(N)nc54)C3O)C(O)C2O)c(=O)[nH]1` (centres undefined) (tested in a mixture with another compound), the T/C is, setting by setting: (dose: 2.5 mg/kg/injection, schedule: Q01DX009 (ip), vehicle: other) 108 % of control; (dose: 5.0 mg/kg/injection, schedule: Q01DX009 (ip), vehicle: other) 105 % of control; (dose: 10.0 mg/kg/injection, schedule: Q01DX009 (ip), vehicle: other) 111 % of control.

With `Cc1[nH]c(=S)sc1C`, the T/C by setting is: under setting [14], 100 % of control; under setting [1], 97 % of control; (dose: 50.0 mg/kg/injection, schedule: Q04DX003 (ip), vehicle: saline) 92 % of control; under setting [15], 88 % of control; under setting [2], 97 % of control; under setting [3], 101 % of control. Also, the T/C under setting [4] is 88 % of control.

`O=[N+]([O-])c1ccc(-c2cccc(Cl)c2)c([N+](=O)[O-])c1`: the T/C runs as follows: under setting [15], 91 % of control; under setting [16], 91 % of control; under setting [17], 95 % of control.

As for `Cc1ccc(C(=O)C=Nc2ccc(S(N)(=O)=O)cc2)cc1`, the T/C runs as follows: (dose: 12.5 mg/kg/injection, schedule: Q04DX002 (ip), vehicle: Klucel (hydroxypropylcellulose) (HPC)) 94 % of control; (dose: 25.0 mg/kg/injection, schedule: Q04DX002 (ip), vehicle: Klucel (hydroxypropylcellulose) (HPC)) 115 % of control; (dose: 50.0 mg/kg/injection, schedule: Q04DX002 (ip), vehicle: Klucel (hydroxypropylcellulose) (HPC)) 97 % of control.

As to `CCCCNC(C)(C)C(SSSC(C)=O)c1ccco1` (centres undefined), the T/C was 100 % of control (dose: 12.5 mg/kg/injection, schedule: Q01DX009 (ip), vehicle: saline with Tween-80); 102 % of control (dose: 12.5 mg/kg/injection, schedule: Q04DX003 (ip), vehicle: saline with Tween-80); 104 % of control (dose: 25.0 mg/kg/injection, schedule: Q01DX009 (ip), vehicle: saline with Tween-80); 106 % of control (dose: 25.0 mg/kg/injection, schedule: Q04DX003 (ip), vehicle: saline with Tween-80); 108 % of control (dose: 50.0 mg/kg/injection, schedule: Q01DX009 (ip), vehicle: saline with Tween-80); 96 % of control (dose: 50.0 mg/kg/injection, schedule: Q04DX003 (ip), vehicle: saline with Tween-80). For the same molecule, the T/C under setting [18] is 102 % of control.

As to `O=[N+]([O-])c1ccc(O)c(N=Cc2ccc(C=Nc3cc([N+](=O)[O-])ccc3O)cc2)c1`, the T/C was 95 % of control and 86 % of control (dose: 100.0 mg/kg/injection, schedule: Q01DX009 (ip), vehicle: Klucel (hydroxypropylcellulose) (HPC)); 97 % of control (dose: 200.0 mg/kg/injection, schedule: Q01DX009 (ip), vehicle: Klucel (hydroxypropylcellulose) (HPC)); 103 % of control and 90 % of control (dose: 400.0 mg/kg/injection, schedule: Q01DX009 (ip), vehicle: Klucel (hydroxypropylcellulose) (HPC)).

Source of the values: PubChem BioAssay AID248 (DTP/NCI, 2004).
